Drawing on US20090076012A1, “Modulation of pathogenicity” (priority 2002, published 2009), this text covers IC50 for five compounds.

Where only a bound is given, the exact number is not on record here.

The subject of this test is bioluminescent sensor strain Escherichia coli MT102 (pSB403). The test can be described thus: Biosensor assay: quorum sensing inhibition, bioluminescence of the sensor strain. Format: cell-based. Particulars: Escherichia coli, 4 h, 3oxo-C6-HSL 100 nM; bioluminescence after 4 hours at 30° C. The procedure, abridged: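 E. coli MT102 (pSB403) luxR/luxI-promoter–luxCDABE sensor, exponential culture in LB stimulated with 100 nM 3oxo-C6-HSL. Compounds added at eight concentrations; bioluminescence read after 4 h at 30° C. IC50 fitted from light reduction relative to no-inhibitor signal.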

As usually defined, the IC50 is the midpoint of a concentration-inhibition curve. The low end stands for inhibition by little substance, the high end for a need for much substance. Turning to `CCCCCCC(=O)Nc1ccnn1C` [Compound 24, Heptanoic acid (2-methyl-2H-pyrazol-3-yl)-amide], the IC50 lay in the range of 1 to 50 µM.

Regarding `Cn1nc(-c2ccc(Cl)cc2)cc1NC(=O)CCCCCBr` [Compound 16, 6-Bromo-hexanoic acid [5-(4chloro-phenyl)-2-methyl-2H-pyrazol-3-yl]-amide], the IC50 was in the range of 1 to 50 µM.

As to `Cn1nc(C(C)(C)C)cc1C(=O)NNC(=O)c1cccs1` [Compound 70, Thiophene-2-carboxylic acid N′-(5-tert-butyl-2-methyl-2H-pyrazole-3-carbonyl)-hydrazide], the concentration for half-maximal inhibition (IC50) was above 100 µM.

`O=C(Nc1ccc(OC(F)(F)F)cc1)c1cnc(Cl)nc1C(F)(F)F` [Compound 7, 2-Chloro-4-trifluoromethyl-pyrimidine-5-carboxylic acid (4-trifluoromethoxy-phenyl)-amide] returned a concentration for half-maximal inhibition (IC50) of 1 to 50 µM. Consider `Cc1csc(C(=O)NNC(=O)Nc2ccc(Br)cc2)c1Cl` [Compound 106, 4-(4-Bromo-phenyl)-1-(3-chloro-4-methyl-thiophene-2-carbonyl)-semicarbazide], for which the IC50 was 1 to 50 µM.
